Source: patent US11352372B2, “Benzimidamides compounds comprising an oxaborinin ring” (INSTITUT NATIONAL DE LA SANTÉ ET DE LA RECHERCHE MÉDICALE …, priority 2018, dated 2022)
Counter-ions that a name gives are not always drawn.

Biological target: T1, human kallikrein 5 recombinant enzyme (KLK5) (Homo sapiens, UniProt Q9Y337)
T1 construct: The cleaved protein was then further purified on a 1 mL Heparin HP HITRAP column; 6His (cleaved yes); FLAG (cleaved yes); made in house; host or cells: Spodoptera frugiperda Super 9 insect cells (baculovirus, BAC-TO-BAC)
T1 sequence (Q9Y337 67-293 limits assumed): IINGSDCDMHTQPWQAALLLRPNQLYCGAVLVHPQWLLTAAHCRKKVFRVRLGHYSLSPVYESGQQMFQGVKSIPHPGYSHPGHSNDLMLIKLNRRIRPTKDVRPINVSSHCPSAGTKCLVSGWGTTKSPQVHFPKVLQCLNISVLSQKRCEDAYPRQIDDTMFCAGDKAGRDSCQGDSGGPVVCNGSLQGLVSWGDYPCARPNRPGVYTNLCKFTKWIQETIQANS
Experiment: Kinetic FLINT KLK5 assay
Type: biochemical
Conditions: 7.5 nM KLK5, 9 uM (Tos-Gly-Pro-Arg)2[R110] substrate, pH 8, each compound tested more than once; for IC50: read-out: average pIC50 (converted)
Experimental: Recombinant KLK5 protein was generated from a recombinant baculovirus using the BAC-TO-BAC system (INVITROGEN) (pFastBac_hKLK5_6His-Q-FLAG) expressed in 5 L of Spodoptera frugiperda Super 9 insect cells with a viral infection rate of 1.0. The protein was secreted into HYCLONE SFX growth media (GE HEALTHCARE) from which it was extracted on a 5 mL HISTRAP EXCEL column (GE HEALTHCARE). The column was washed with 500 mM NaCl, 20 mM Tris pH 7.4 buffer and the protein eluted using 500 mM imidazole in 250 mM NaCl, 20 mM Tris pH 7.4 buffer. The eluent was captured on a 5 mL ANTI-FLAG M2 Affinity Gel column (SIGMA). KLK5 was eluted by competing off the bound protein with 0.2 mg/mL FLAG peptide (SIGMA) in 50 mM NaCl, 20 mM Tris-HCl pH 7.4 buffer. 1 M CaCl2 was added to the pooled fractions to a final concentration 2 mM and these were treated with 0.1 U of enterokinase (NOVAGEN) per μg of target protein. The proteins were incubated at room temperature for ˜48 h. The cleaved protein was then further purified on a 1 mL Heparin HP HITRAP column (GE HEALTHCARE) in 20 mM MOPS, pH 6.8 buffer, washed with 100 mM NaCl in 20 mM MOPS, pH 6.8 buffer and eluted with 700 mM NaCl in this buffer. Fractions containing KLK5 were pooled and concentrated using an AMICON concentrator with a molecular weight cut off of 10000 Da. For cryoprotection, glycerol was added to a final concentration of 50%. All purifications were carried out using a semi-automated ÄKTA systems from GE HEALTHCARE.
11 point, 3-fold serial dilutions of each supporting compound were prepared in DMSO and 50 nL of these solutions were dispensed into black LV 384-well plates (GREINER BIO-ONE, Stonehouse, UK) using an ECHO 555 acoustic dispenser (LABCYTE, Sunnyvale, Calif.). This gave a final assay concentration range between 10 μM and […] in 5 μL final assay volume. 50 nL DMSO was dispensed into columns 6 and 18 for high and low controls, respectively. The assay plates were sealed and stored at 4° C. until required.
Conditions for the assay of human kallikrein 5 recombinant enzyme (KLK5), were 100 mM sodium phosphate, pH 8, 1 mM CHAPS, 7.5 nM KLK5 enzyme (see above for preparation), 9 uM peptide substrate ((Tos-Gly-Pro-Arg)2[R110].2TFA) in a total reaction volume of 5 μL.
Assays were performed by initially dispensing 2.5 μL of an enzyme solution (15 nM KLK5 in sodium phosphate, pH 8, 1 mM CHAPS) into all wells of the assay plate (except for column 18) then, 2.5 μL of buffer to column 18 (to generate low controls). Reactions were initiated by addition of 2.5 μL of substrate solution [18 uM (Tos-Gly-Pro-Arg)2[R110].2TFA (Cambridge Research Biochemicals) in sodium phosphate, pH 8, 1 mM CHAPS] to all wells. Plates were immediately centrifuged to reach 1000 rpm before transfer to the reader. All additions were made using a MULTIDROP COMBI dispenser (THERMO FISHER SCIENTIFIC). The assay plates were transferred to a PERKIN ELMER VIEWLUX. The plates were excited at 485 nm and the rates of Rhodamine110 fluorecent emission measured at 535 nm, following cleavage of the substrate by KLK5. Ten measurements were taken over 5 minutes with a read interval of 30 seconds.
From the raw data, the enzyme reaction rates were calculated as relative fluorescence units (RFU). Using the 10 reads collected, per well, a straight line was fitted through data. Initial rates were calculated from the slope of the reaction progress curves. The rate data was normalised to % inhibition between high controls in column 6 (0% inhibition) and low controls in column 18 (100% inhibition). Dose response curves were fitted using the IDBS Primary module fit. The data were fitted by means of a four-parameter fit logistic:
Where x is the inhibitor concentration, y is inhibition (%), A is the minimum response, D is the maximum response, C is the IC50 for the curve and B is the Hill slope. The −log(IC50) gives the pIC50.

For `Cl.N=C(N)c1ccc(C2Cc3cc(Cl)c(F)cc3B(O)O2)cc1OCc1cccnc1` (centres unmarked) [Compound 7, 4-(6-chloro-7-fluoro-1-hydroxy-3,4-dihydro-1H-benzo[c][1,2]oxaborinin-3-yl)-2-(pyridin-3-ylmethoxy)benzimidamide], the “average pIC50” value was 8.1.

For `N=C(N)c1ccc([C@H]2Cc3ccc(C(F)(F)F)cc3B(O)O2)cc1OCc1cccnc1` [Compound 3, (R)-4-(1-hydroxy-7-(trifluoromethyl)-3,4-dihydro-1H-benzo[c][1,2]oxaborinin-3-yl)-2-(pyridin-3-ylmethoxy)benzimidamide], the IC50 was 39.8 nM.

Molecule `N=C(N)c1ccc(C2Cc3ccc(C(F)(F)F)cc3B(O)O2)cc1` (centres unmarked) [Compound 6, 4-(1-hydroxy-7-(trifluoromethyl)-3,4-dihydro-1H-benzo[c][1,2]oxaborinin-3-yl)benzimidamide] has an IC50 of 10 nM.

In the case of `N=C(N)c1ccc([C@H]2Cc3ccc(C(F)(F)F)cc3B(O)O2)cc1OCc1cccnc1` [Compound 2, (R)-4-(1-hydroxy-7-(trifluoromethyl)-3,4-dihydro-1H-benzo[c][1,2]oxaborinin-3-yl)-2-(pyridin-3-ylmethoxy)benzimidamide hydrochloride salt], the IC50 is reported as 3.98 nM.

For `Cl.N=C(N)c1ccc(C2Cc3ccc(C(F)(F)F)cc3B(O)O2)cc1OCc1cccnc1` (centres unmarked) [Compound 1, 4-(1-Hydroxy-7-(trifluoromethyl)-3,4-dihydro-1H-benzo[c][1,2]oxaborinin-3-yl)-2-(pyridin-3-ylmethoxy)benzimidamide hydrochloride salt], the “average pIC50” value was 8.5.

Molecule `N=C(N)c1ccc(C2Cc3ccc(C(F)(F)F)cc3B(O)O2)cc1OCc1cccc(Cl)c1` (centres unmarked) [Compound 5, 2-((3-chlorobenzyl)oxy)-4-(1-hydroxy-7-(trifluoromethyl)-3,4-dihydro-1H-benzo[c][1,2]oxaborinin-3-yl)benzimidamide] has an IC50 of 7.94 nM.

For `N=C(N)c1ccc([C@@H]2Cc3ccc(C(F)(F)F)cc3B(O)O2)cc1OCc1cccnc1` [Compound 4], the IC50 was 3.98 nM.

`Cl.N=C(N)c1ccc(C2Cc3ccccc3B(O)O2)cc1OCc1cccnc1` (centres unmarked) [Compound 8, 4-(1-hydroxy-3,4-dihydro-1H-benzo[c][1,2]oxaborinin-3-yl)-2-(pyridin-3-ylmethoxy)benzimidamide] was tested, and the “average pIC50” value was 8.2.
